Molecules are shown by their SMILES.

In this assay the target is Large T antigen (Simian virus 40) (UniProt P03070). The assay is described as follows: SV40 large T antigen inhibitors, biochemical (AID 1903). To be noted: SV40 large T antigen ATPase/helicase inhibition assay.
Large T antigen (Simian virus 40), sequence (P03070 whole entry, looked up): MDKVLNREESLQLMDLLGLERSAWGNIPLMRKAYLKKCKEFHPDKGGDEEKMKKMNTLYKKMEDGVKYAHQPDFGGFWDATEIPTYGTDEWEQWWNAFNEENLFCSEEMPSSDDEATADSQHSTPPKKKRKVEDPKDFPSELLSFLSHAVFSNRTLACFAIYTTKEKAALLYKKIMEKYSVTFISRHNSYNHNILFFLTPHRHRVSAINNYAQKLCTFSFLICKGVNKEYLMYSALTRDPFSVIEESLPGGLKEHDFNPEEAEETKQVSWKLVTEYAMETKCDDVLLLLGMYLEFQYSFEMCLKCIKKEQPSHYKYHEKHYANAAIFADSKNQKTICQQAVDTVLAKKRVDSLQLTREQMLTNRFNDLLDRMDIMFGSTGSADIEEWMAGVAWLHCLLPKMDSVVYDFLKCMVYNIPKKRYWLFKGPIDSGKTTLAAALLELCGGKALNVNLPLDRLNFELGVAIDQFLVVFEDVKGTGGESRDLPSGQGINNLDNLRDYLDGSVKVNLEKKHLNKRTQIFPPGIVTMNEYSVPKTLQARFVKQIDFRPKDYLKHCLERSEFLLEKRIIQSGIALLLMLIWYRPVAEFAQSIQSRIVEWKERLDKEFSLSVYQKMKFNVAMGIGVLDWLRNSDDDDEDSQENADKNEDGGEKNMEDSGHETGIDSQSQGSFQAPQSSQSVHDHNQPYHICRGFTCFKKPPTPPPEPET
As usually defined, the IC50 is the concentration that gives 50% inhibition. Turning to `CCCCC1(C)OC(=O)C(=Cc2ccc(-c3ccc(Cl)c(C(=O)O)c3)o2)C(=O)O1` (centres undefined), the IC50 is 17.2 µM.

For the compound `C#CCOCCOCCOCCNc1nc(N2CCN(C(=O)CCCCCCCCCCNC(=O)[C@H]([C@@H](C)CC)n3cc(CCCCN=C(N)N)nn3)CC2)nc(N2CCN(C(=O)CCCCCCCCCCNC(=O)[C@H](CCCN=C(N)N)n3cc(C[C@@H](C)CC)nn3)CC2)n1`, the concentration for half-maximal inhibition (IC50) was 10.3 µM. For the compound `C#CCOCCOCCOCCNc1nc(N2CCN(C(=O)CCCCCCCCCCNC(=O)[C@H](CCCN=C(N)N)n3cc(C[C@@H](C)CC)nn3)CC2)nc(N2CCN(C(=O)CCCCCCCCCCNC(=O)[C@@H]([C@H](C)CC)n3cc(CCCCCN)nn3)CC2)n1`, the half-maximal inhibitory concentration (IC50) was 18.6 µM.

Take `C#CCOCCOCCOCCNc1nc(N2CCN(C(=O)CCCCCCCCCCNC(=O)[C@H]([C@@H](C)CC)n3cc(CCCCN=C(N)N)nn3)CC2)nc(N2CCN(C(=O)CCCCCCCCCCNC(=O)[C@H](CCCCN)n3cc(C[C@@H](C)CC)nn3)CC2)n1`: the IC50 was 13.1 µM. Then `C[CH2][Hg][S]c1ccccc1C(=O)O`, with 32.7 µM; and `C[c-]1[c-](C)[c-](C)[c-](C)[c-]1C.[Fe].c1cc2nccc(N3CCCC3)[c-]2c1` (centres undefined), with 17.6 µM.

In the case of `O=C(O)c1cc[c]([Hg][Cl])cc1`, the IC50 was 1.27 µM. For `C#CCOCCOCCOCCNc1nc(N2CCN(C(=O)CCCCCCCCCCNC(=O)[C@H]([C@@H](C)CC)n3cc(CCCCN=C(N)N)nn3)CC2)nc(N2CCN(C(=O)CCCCCCCCCCNC(=O)[C@H]([C@@H](C)CC)n3cc(CCCCN=C(N)N)nn3)CC2)n1` the value was 5.17 µM.

In the case of `O=C(O)CCC1c2cc3c4cc2OC2Oc5cc6c(cc51)C(CCC(=O)O)c1cc5c7cc1OC(O6)c1cc6cc(c1)Oc1cc(cc(C(=O)O)c1)Oc1cc8cc(c1)C(Oc1cc(c(cc1C5CCC(=O)O)C3CCC(=O)O)OC(O4)c1cc(cc(c1)Oc1cc(cc(C(=O)O)c1)O8)Oc1cc(cc(C(=O)O)c1)Oc1cc(cc2c1)Oc1cc(cc(C(=O)O)c1)O6)O7` (centres undefined), the IC50 was less than 0.39 µM.

These data come from PubChem BioAssay AID1903 (Southern Research Specialized Biocontainment Screening …, 2009).
